Measurements as given in ChEMBL document CHEMBL1201862, “PubChem BioAssay data set” (2004).
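Tested at 5 concentrations; 48 h exposure; 96-well plates; endpoints linearly interpolated, else capped at highest concentration. The concentration for 50% growth inhibition is given as GI50.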 Activity calls are given as the source filed them. No stated cut-off is given here; in the data, active = GI50 up to about 1.1 µM and inactive = higher.

What was measured:
Assay in all cases: growth of human tumour cells (NCI), 48 h
[1] = system: 786-0
[2] = system: A498
[3] = system: A549
[4] = system: ACHN
[5] = system: BT-549
[6] = system: CCRF-CEM
[7] = system: COLO 205
[8] = system: DU-145
[9] = system: EKVX
[10] = system: HCC 2998
[11] = system: HCT-116
[12] = system: HCT-15
[13] = system: HL-60
[14] = system: HOP-62
[15] = system: HOP-92
[16] = system: HT-29
[17] = system: Hs-578T
[18] = system: IGROV-1
[19] = system: K562
[20] = system: KM12
[21] = system: LOX IMVI
[22] = system: M14
[23] = system: MCF7
[24] = system: MDA-MB-231
[25] = system: MDA-MB-435
[26] = system: MDA-N
[27] = system: MOLT-4
[28] = system: Malme-3M
[29] = system: NCI-H226
[30] = system: NCI-H23
[31] = system: NCI-H460
[32] = system: NCI-H522
[33] = system: NCI/ADR-RES
[34] = system: OVCAR-3
[35] = system: OVCAR-4
[36] = system: OVCAR-5
[37] = system: OVCAR-8
[38] = system: PC-3
[39] = system: RPMI-8226
[40] = system: RXF 393
[41] = system: SF-268
[42] = system: SF-295
[43] = system: SF-539
[44] = system: SK-MEL-28
[45] = system: SK-MEL-2
[46] = system: SK-MEL-5
[47] = system: SK-OV-3
[48] = system: SN12C
[49] = system: SNB-19
[50] = system: SNB-75
[51] = system: SR
[52] = system: SW-620
[53] = system: T47D
[54] = system: TK-10
[55] = system: U-251
[56] = system: UACC-257
[57] = system: UACC-62
[58] = system: UO-31

## Cc1nc2c(nc1C)-c1c(c3c(n1C)C(=O)CCC3)C(=O)C2=O
[1]
  GI50: 1.39 µM (inactive)
[2]
  GI50: 0.984 µM (active)
[3]
  GI50: 1.3 µM (inactive)
[4]
  GI50: 0.476 µM (active)
[5]
  GI50: 0.0259 µM (active)
[6]
  GI50: 0.219 µM (active)
[7]
  GI50: 1.75 µM (inactive)
[8]
  GI50: 0.592 µM (active)
[9]
  GI50: 1.06 µM (active)
[10]
  GI50: 1.61 µM (inactive)
[11]
  GI50: 0.249 µM (active)
[12]
  GI50: 334 nM
[13]
  GI50: 0.232 µM (active)
[14]
  GI50: 0.885 µM (active)
[15]
  GI50: 1.29 µM (inactive)
[16]
  GI50: 1.98 µM (inactive)
[17]
  GI50: 1.42 µM (inactive)
[18]
  GI50: 0.337 µM (active)
[19]
  GI50: 0.338 µM (active)
[20]
  GI50: 1.45 µM (inactive)
[21]
  GI50: 0.186 µM (active)
[22]
  GI50: 0.338 µM (active)
[23]
  GI50: 0.163 µM (active)
[24]
  GI50: 0.264 µM (active)
[25]
  GI50: 0.174 µM (active)
[26]
  GI50: 0.162 µM (active)
[27]
  GI50: 312 nM (active)
[28]
  GI50: 0.297 µM (active)
[29]
  GI50: 1.41 µM (inactive)
[30]
  GI50: 0.743 µM (active)
[31]
  GI50: 1.23 µM (inactive)
[32]
  GI50: 434 nM (active)
[33]
  GI50: 0.547 µM (active)
[34]
  GI50: 0.156 µM (active)
[35]
  GI50: 0.145 µM (active)
[36]
  GI50: 0.953 µM (active)
[37]
  GI50: 236 nM (active)
[38]
  GI50: 1.17 µM (inactive)
[39]
  GI50: 0.194 µM (active)
[40]
  GI50: 0.16 µM (active)
[41]
  GI50: 0.295 µM (active)
[42]
  GI50: 1.75 µM (inactive)
[43]
  GI50: 1.22 µM (inactive)
[44]
  GI50: 0.622 µM (active)
[45]
  GI50: 0.571 µM (active)
[46]
  GI50: 0.406 µM (active)
[47]
  GI50: 1.27 µM (inactive)
[48]
  GI50: 0.216 µM (active)
[49]
  GI50: 0.873 µM (active)
[50]
  GI50: 931 nM (active)
[51]
  GI50: 0.175 µM (active)
[52]
  GI50: 0.214 µM (active)
[53]
  GI50: 0.0697 µM (active)
[54]
  GI50: 2.22 µM (inactive)
[55]
  GI50: 0.213 µM (active)
[56]
  GI50: 1.4 µM (inactive)
[57]
  GI50: 0.406 µM (active)
[58]
  GI50: 0.456 µM (active)

## CSc1ncnc2c1cnn2Cc1cn(COCCO)nn1
[1]
  GI50: 18.7 µM (inactive)
[2]
  GI50: > 100 µM (inactive)
[3]
  GI50: 51.8 µM (inactive)
[4]
  GI50: > 100 µM (inactive)
[5]
  GI50: > 100 µM (inactive)
[6]
  GI50: 43.5 µM (inactive)
[7]
  GI50: 33.9 µM (inactive)
[8]
  GI50: 49.3 µM (inactive)
[10]
  GI50: 32.2 µM (inactive)
[11]
  GI50: 45.4 µM (inactive)
[12]
  GI50: > 100000 nM
[13]
  GI50: 40 µM (inactive)
[14]
  GI50: 64.7 µM (inactive)
[15]
  GI50: > 100 µM (inactive)
[16]
  GI50: 22.3 µM (inactive)
[17]
  GI50: > 100 µM (inactive)
[18]
  GI50: 74.8 µM (inactive)
[19]
  GI50: 38.4 µM (inactive)
[20]
  GI50: 23.2 µM (inactive)
[21]
  GI50: 80.7 µM (inactive)
[22]
  GI50: > 100 µM (inactive)
[23]
  GI50: 43.3 µM (inactive)
[24]
  GI50: > 100 µM (inactive)
[25]
  GI50: 11.1 µM (inactive)
[26]
  GI50: 18.5 µM (inactive)
[28]
  GI50: > 100 µM (inactive)
[29]
  GI50: > 100 µM (inactive)
[30]
  GI50: 49.7 µM (inactive)
[31]
  GI50: 32 µM (inactive)
[33]
  GI50: > 100 µM (inactive)
[34]
  GI50: 18.3 µM (inactive)
[35]
  GI50: 45.5 µM (inactive)
[36]
  GI50: 88.5 µM (inactive)
[38]
  GI50: 36 µM (inactive)
[39]
  GI50: 34.3 µM (inactive)
[40]
  GI50: 46.6 µM (inactive)
[41]
  GI50: > 100 µM (inactive)
[43]
  GI50: > 100 µM (inactive)
[44]
  GI50: > 100 µM (inactive)
[45]
  GI50: 39 µM (inactive)
[46]
  GI50: 46.8 µM (inactive)
[47]
  GI50: 47.6 µM (inactive)
[48]
  GI50: 64.6 µM (inactive)
[49]
  GI50: > 100 µM (inactive)
[51]
  GI50: 12.5 µM (inactive)
[52]
  GI50: 44.3 µM (inactive)
[53]
  GI50: > 100 µM (inactive)
[54]
  GI50: > 100 µM (inactive)
[55]
  GI50: 64.1 µM (inactive)
[56]
  GI50: > 100 µM (inactive)
[57]
  GI50: 84.3 µM (inactive)
[58]
  GI50: > 100 µM (inactive)
